Assay in all cases: relative viability (nuclei count vs DMSO), 5 days (fraction); higher = more cells survive
Compound in the test “4EGI-1 + Tozasertib”: O=C(O)C(Cc1ccccc1[N+](=O)[O-])=NNc1nc(-c2ccc(Cl)c(Cl)c2)cs1 (mixture of isomers) [4EGI-1] + Cc1cc(Nc2cc(N3CCN(C)CC3)nc(Sc3ccc(NC(=O)C4CC4)cc3)n2)n[nH]1 [Tozasertib] (partner 0.1 µM)
In short, it runs like this:
(§1)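 Relative viability equals treated-well nuclei counts divided by vehicle-well nuclei counts. Counts came from 4× images of lung cancer cell lines grown in 1536-well plates for 5 days after pin-tool dosing on the day after seeding. Dosing used one drug alone or a fixed anchor-drug dose plus five library-drug doses (not always all listed) in √10 steps, and values are medians of duplicate plates.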

Compound in the test “4EGI-1 + Phenformin”: O=C(O)C(Cc1ccccc1[N+](=O)[O-])=NNc1nc(-c2ccc(Cl)c(Cl)c2)cs1 (mixture of isomers) [4EGI-1] + N=C(N)NC(=N)NCCc1ccccc1 [Phenformin] (partner 250 µM)
Summed up:
as §1

Compound in the test “4EGI-1 + Palbociclib”: O=C(O)C(Cc1ccccc1[N+](=O)[O-])=NNc1nc(-c2ccc(Cl)c(Cl)c2)cs1 (mixture of isomers) [4EGI-1] + CC(=O)c1c(C)c2cnc(Nc3ccc(N4CCNCC4)cn3)nc2n(C2CCCC2)c1=O [Palbociclib] (partner 0.5 µM)
Summed up:
as §1

Compound in the test “4EGI-1 + Alpelisib”: O=C(O)C(Cc1ccccc1[N+](=O)[O-])=NNc1nc(-c2ccc(Cl)c(Cl)c2)cs1 (mixture of isomers) [4EGI-1] + Cc1nc(NC(=O)N2CCC[C@H]2C(N)=O)sc1-c1ccnc(C(C)(C)C(F)(F)F)c1 [Alpelisib] (partner 2 µM)
In short, it runs like this: as §1

In the supplement of paper PMC10307832 one finds relative viability data, which are given here for four cell lines.

NCI-H2228: the relative viability was found to be 0.276 with 4EGI-1 + Tozasertib (first compound 0.5 µM); 0.273 with 4EGI-1 + Tozasertib (first compound 1.581 µM); 0.248 with 4EGI-1 + Tozasertib (first compound 5 µM); 0.285 with 4EGI-1 + Tozasertib (first compound 15.81 µM); 0.134 with 4EGI-1 + Tozasertib (first compound 50 µM); 0.314 with 4EGI-1 + Phenformin (first compound 0.5 µM). Also, the relative viability in the test with 4EGI-1 + Phenformin (first compound 1.581 µM) is 0.313; with 4EGI-1 + Phenformin (first compound 5 µM), 0.379; with 4EGI-1 + Phenformin (first compound 15.81 µM), 0.298; with 4EGI-1 + Phenformin (first compound 50 µM), 0.141; in the test with 4EGI-1 + Palbociclib (first compound 0.5 µM) it was 1.22; in the test with 4EGI-1 + Palbociclib (first compound 1.581 µM) it was 0.708. Moreover, the relative viability with 4EGI-1 + Palbociclib (first compound 5 µM) was found to be 0.785; with 4EGI-1 + Palbociclib (first compound 15.81 µM), 0.787; with 4EGI-1 + Palbociclib (first compound 50 µM), 0.314; with 4EGI-1 + Alpelisib (first compound 0.5 µM), 0.664; with 4EGI-1 + Alpelisib (first compound 1.581 µM) it was 0.672; with 4EGI-1 + Alpelisib (first compound 5 µM), 0.82. In addition, the relative viability was determined as 0.61 in the test with 4EGI-1 + Alpelisib (first compound 15.81 µM) and 0.177 with 4EGI-1 + Alpelisib (first compound 50 µM).

Turning to CAL-12T, the relative viability was 0.354 in the test with 4EGI-1 + Tozasertib (first compound 0.5 µM); 0.264 with 4EGI-1 + Tozasertib (first compound 1.581 µM); 0.315 with 4EGI-1 + Tozasertib (first compound 5 µM); 0.315 with 4EGI-1 + Tozasertib (first compound 15.81 µM); 0.21 with 4EGI-1 + Tozasertib (first compound 50 µM); 0.578 with 4EGI-1 + Phenformin (first compound 0.5 µM). In addition, the relative viability in the test with 4EGI-1 + Phenformin (first compound 1.581 µM) stood at 0.465; with 4EGI-1 + Phenformin (first compound 5 µM), 0.609; in the test with 4EGI-1 + Phenformin (first compound 15.81 µM) it was 0.527; with 4EGI-1 + Phenformin (first compound 50 µM) it was 0.179; with 4EGI-1 + Palbociclib (first compound 0.5 µM), 0.618; in the test with 4EGI-1 + Palbociclib (first compound 5 µM), 0.577. Also, the relative viability came to 0.169 in the test with 4EGI-1 + Palbociclib (first compound 15.81 µM); 0.145 with 4EGI-1 + Palbociclib (first compound 50 µM); 1.24 with 4EGI-1 + Alpelisib (first compound 0.5 µM); 1.28 in the test with 4EGI-1 + Alpelisib (first compound 5 µM); 1.25 with 4EGI-1 + Alpelisib (first compound 15.81 µM); 1.15 in the test with 4EGI-1 + Alpelisib (first compound 50 µM).

On to NCI-H441, for which the relative viability in the test with 4EGI-1 + Tozasertib (first compound 0.5 µM) amounted to 0.688; with 4EGI-1 + Tozasertib (first compound 1.581 µM) it was 0.538; in the test with 4EGI-1 + Tozasertib (first compound 5 µM), 0.574; with 4EGI-1 + Tozasertib (first compound 15.81 µM) it was 0.541; with 4EGI-1 + Tozasertib (first compound 50 µM), 0.284; with 4EGI-1 + Phenformin (first compound 0.5 µM), 1.04. The relative viability in the test with 4EGI-1 + Phenformin (first compound 1.581 µM) was determined as 0.76; with 4EGI-1 + Phenformin (first compound 5 µM), 0.919; with 4EGI-1 + Phenformin (first compound 15.81 µM), 0.785; in the test with 4EGI-1 + Phenformin (first compound 50 µM) it was 0.183; in the test with 4EGI-1 + Palbociclib (first compound 0.5 µM), 0.283; with 4EGI-1 + Palbociclib (first compound 1.581 µM), 0.2. Besides, the relative viability came to 0.23 with 4EGI-1 + Palbociclib (first compound 5 µM); 0.185 with 4EGI-1 + Palbociclib (first compound 15.81 µM); 0.146 with 4EGI-1 + Palbociclib (first compound 50 µM); 0.787 with 4EGI-1 + Alpelisib (first compound 0.5 µM); 0.758 with 4EGI-1 + Alpelisib (first compound 1.581 µM); 0.656 with 4EGI-1 + Alpelisib (first compound 5 µM). Besides, the values for the relative viability with 4EGI-1 + Alpelisib (first compound 15.81 µM) and with 4EGI-1 + Alpelisib (first compound 50 µM) were 0.743 and 0.301, respectively.

NCI-H1437: the relative viability worked out at 0.416 with 4EGI-1 + Tozasertib (first compound 0.5 µM); 0.378 with 4EGI-1 + Tozasertib (first compound 1.581 µM); 0.399 in the test with 4EGI-1 + Tozasertib (first compound 5 µM); 0.318 with 4EGI-1 + Tozasertib (first compound 15.81 µM); 0.175 with 4EGI-1 + Tozasertib (first compound 50 µM); 0.272 with 4EGI-1 + Phenformin (first compound 0.5 µM). Besides, the relative viability in the test with 4EGI-1 + Phenformin (first compound 1.581 µM) worked out at 0.298; in the test with 4EGI-1 + Phenformin (first compound 5 µM), 0.305; with 4EGI-1 + Phenformin (first compound 15.81 µM), 0.262; with 4EGI-1 + Phenformin (first compound 50 µM), 0.214; with 4EGI-1 + Palbociclib (first compound 0.5 µM) it was 0.368; with 4EGI-1 + Palbociclib (first compound 1.581 µM), 0.308. The relative viability worked out at 0.335 with 4EGI-1 + Palbociclib (first compound 5 µM); 0.279 with 4EGI-1 + Palbociclib (first compound 15.81 µM); 0.168 with 4EGI-1 + Palbociclib (first compound 50 µM); 1.13 with 4EGI-1 + Alpelisib (first compound 0.5 µM); 0.865 in the test with 4EGI-1 + Alpelisib (first compound 1.581 µM); 0.84 in the test with 4EGI-1 + Alpelisib (first compound 5 µM). Further, the results for the relative viability with 4EGI-1 + Alpelisib (first compound 15.81 µM) and with 4EGI-1 + Alpelisib (first compound 50 µM) were 0.845 and 0.153, respectively.
